Literature values, collected in patent publication US10421941B2, “Process for improving the solubility of cell culture media” (Merck Patent GmbH, priority 2014, dated 2019).

Conditions: water / aqueous solvents

## CC[C@H](C)[C@H](N)C(=O)O [isoleucine]
  solubility (in words): moderate

## N[C@@H](CSSC[C@H](N)C(=O)O)C(=O)O [cystine]
  solubility (in words): poorly soluble

## CC(C)[C@H](N)C(=O)O [valine]
  solubility (in words): moderate

## CC(C)C[C@H](N)C(=O)O [leucine]
  solubility (in words): moderate
